Results taken from patent US9902725B2, “Heterocyclic derivatives as RORgamma modulators” (GENFIT, priority 2014, dated 2018).

Assays:
[1] = target: T1, RORγt ligand-binding domain (RORγt-LBD) (Homo sapiens, UniProt P51449); assay: Time-resolved FRET (TR-FRET) RORγt coactivator assay; format: biochemical; conditions: GST-RORγ-LBD, biotinylated RIP140 peptide, coactivator displacement
T1 construct: 20 nM recombinantly expressed RORγ-LBD fused to GST
T1 sequence (P51449 269-508 limits assumed): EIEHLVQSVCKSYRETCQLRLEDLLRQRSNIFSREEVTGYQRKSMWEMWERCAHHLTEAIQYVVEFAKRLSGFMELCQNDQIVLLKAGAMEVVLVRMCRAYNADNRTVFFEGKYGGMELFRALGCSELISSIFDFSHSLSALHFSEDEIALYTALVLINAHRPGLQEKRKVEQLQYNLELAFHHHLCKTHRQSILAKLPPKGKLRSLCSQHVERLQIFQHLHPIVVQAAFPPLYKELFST

human RORγt = target: T2, human RORγt (Homo sapiens, UniProt P51449); assay: IL-17 secretion from EL4 murine lymphoma overexpressing human RORγt; format: cell-based; parameters: expressed in transfected cells; host or cells: EL-4 murine lymphoma; conditions: IL-17 secretion inhibition, PMA and ionomycin stimulation, 24 h
T2 sequence (P51449 1-497 isoform P51449-2): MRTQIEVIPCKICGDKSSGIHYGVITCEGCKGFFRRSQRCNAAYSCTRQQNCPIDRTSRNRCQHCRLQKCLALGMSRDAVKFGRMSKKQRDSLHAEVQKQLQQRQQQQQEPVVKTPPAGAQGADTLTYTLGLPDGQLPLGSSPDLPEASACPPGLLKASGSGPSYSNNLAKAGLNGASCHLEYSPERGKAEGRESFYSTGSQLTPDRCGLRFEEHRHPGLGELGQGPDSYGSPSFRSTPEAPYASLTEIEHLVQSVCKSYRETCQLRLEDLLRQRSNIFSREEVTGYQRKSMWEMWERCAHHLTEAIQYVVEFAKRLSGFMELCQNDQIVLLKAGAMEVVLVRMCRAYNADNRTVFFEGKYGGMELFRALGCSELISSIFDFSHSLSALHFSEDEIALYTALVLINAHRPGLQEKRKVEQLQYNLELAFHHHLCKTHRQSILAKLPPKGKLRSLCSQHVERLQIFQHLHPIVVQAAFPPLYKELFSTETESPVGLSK
Method: Murine EL-4 lymphoma cell line overexpressing human RORγt was used in this functional assay to assess compound ability to inhibit IL-17 cytokine secretion.
EL-4 cells are maintained in a standard culture medium RPMI supplemented with 10% fetal calf serum, 1% sodium pyruvate, 1% essential amino acids and 1% antibiotics at 37° C. in a humidified atmosphere of 5% CO2 and 95% air. Culture medium was changed every 2 days. EL4 cells were transfected with a plasmid encoding hRORγt (sequence identical to published sequence NM 001001523). […] Briefly, 1 μg of DNA/1 million cells was served to transfect EL-4 cells. Cell/DNA suspension was transferred into certified cuvette and the electroporation of RORγt plasmid was carried out using appropriate Nucleofector® program.
Cells were seeded in 96 well plates at a density of 150000 cells/well then treated with compounds of this invention at indicated concentrations and incubated for 24 hours at 37° C. in a humidified atmosphere of 5% CO2 and 95% air. EL-4 cells were pretreated with test compounds (RORγ modulators) and stimulated with PMA (10 ng/mL) and ionomycin (1 μM final concentration) in the presence of test compound concentrations for additional 24 h at 37° C. in a humidified atmosphere of 5% CO2 and 95% air. Subsequently, supernatants were collected (after centrifugation at 300 g for 10 minutes) to determine the concentrations of IL-17 by HTRF (CisBio, France) or ELISA (R&D Systems Europe) according to the manufacturer's protocols.

| SMILES | IC50 [1] [µM] | IC50 (human RORγt) [µM] |
| --- | --- | --- |
| COC(=O)Cc1c[nH]c2ccc(CC(=O)NC(c3ccccc3)c3ccc(C)cc3N3CCCCC3)cc12 (stereo not drawn) [Cpd. 86, methyl 2-{5-[({[4-methyl-2-(piperidin-1-yl)phenyl](phenyl)methyl}carbamoyl)methyl]-1H-indol-3-yl}acetate] | < 1 | < 1 |
| COC(=O)Cc1c[nH]c2ccc(CC(=O)NC(c3ccccc3)c3ccc(C(F)(F)F)cc3N3CCCC3)cc12 (stereo not drawn) [Cpd. 88, methyl 2-{5-[({phenyl[2-(pyrrolidin-1-yl)-4-(trifluoromethyl)phenyl]methyl}carbamoyl)methyl]-1H-indol-3-yl}acetate] | < 1 | 1 to 10 |
| CC(C)(C)OC(=O)CCc1c[nH]c2ccc(CC(=O)NC(c3ccccc3)c3ccc(Cl)cc3N3CCCC3)cc12 (stereo not drawn) [Cpd. 90, tert-butyl 3-{5-[({[4-chloro-2-(pyrrolidin-1-yl)phenyl](phenyl)methyl}carbamoyl)methyl]-1H-indol-3-yl}propanoate] | < 1 | 10 to 30 |
| COC(=O)Cc1c[nH]c2ccc(CC(=O)NC(c3ccccc3)c3ccc(C)cc3N3CCOCC3)cc12 (stereo not drawn) [Cpd. 96, methyl 2-{5-[({[4-methyl-2-(morpholin-4-yl)phenyl](phenyl)methyl}carbamoyl)methyl]-1H-indol-3-yl}acetate] | < 1 | 1 to 10 |
| COc1cc(C)ccc1C(NC(=O)Cc1ccc2[nH]cc(CCC(=O)OC(C)(C)C)c2c1)c1ccccc1 (stereo not drawn) [Cpd. 98, tert-butyl 3-[5-({[(2-methoxy-4-methylphenyl)(phenyl)methyl]carbamoyl}methyl)-1H-indol-3-yl]propanoate] | < 1 | 1 to 10 |
| COc1ccc(C(NC(=O)Cc2ccc3[nH]cc(CCC(=O)OC(C)(C)C)c3c2)c2ccccc2)c(N2CCCC2)c1 (stereo not drawn) [Cpd. 108, tert-butyl 3-{5-[({[4-methoxy-2-(pyrrolidin-1-yl)phenyl](phenyl)methyl}carbamoyl)methyl]-1H-indol-3-yl}propanoate] | < 1 | < 1 |
| COc1ccc(C(NC(=O)Cc2ccc3[nH]cc(CCC(=O)OC(C)(C)C)c3c2)c2ccccc2)c(N2CCCCC2)c1 (stereo not drawn) [Cpd. 110, tert-butyl 3-{5-[({[4-methoxy-2-(piperidin-1-yl)phenyl](phenyl)methyl}carbamoyl)methyl]-1H-indol-3-yl}propanoate] | < 1 | 1 to 10 |
| CCNc1cc(C)ccc1C(NC(=O)Cc1ccc2[nH]cc(CCC(=O)OC(C)(C)C)c2c1)c1ccccc1 (stereo not drawn) [Cpd. 119, tert-butyl 3-{5-[({[2-(ethylamino)-4-methylphenyl](phenyl)methyl}carbamoyl)methyl]-1H-indol-3-yl}propanoate] | < 1 | 1 to 10 |
| Cc1ccc(C(NC(=O)Cc2ccc3[nH]cc(CCC(=O)OC(C)(C)C)c3c2)c2ccccc2)c(NC(C)C)c1 (stereo not drawn) [Cpd. 125, tert-butyl 3-(5-{[({4-methyl-2-[(propan-2-yl)amino]phenyl}(phenyl)methyl)carbamoyl]methyl}-1H-indol-3-yl)propanoate] | < 1 | 1 to 10 |
| COc1ccc(C(NC(=O)Cc2ccc3[nH]cc(CCC(=O)OC(C)(C)C)c3c2)c2ccccc2)c(N2CCCCCC2)c1 (stereo not drawn) [Cpd. 141, tert-butyl 3-{5-[({[2-(azepan-1-yl)-4-methoxyphenyl](phenyl)methyl}carbamoyl)methyl]-1H-indol-3-yl}propanoate] | < 1 | 1 to 10 |
| Cc1ccc(C(NC(=O)Cc2ccc3[nH]cc(CCC(=O)OC(C)(C)C)c3c2)c2ccccc2)c(OC(C)C)c1 (stereo not drawn) [Cpd. 145, tert-butyl 3-{5-[({[4-methyl-2-(propan-2-yloxy)phenyl](phenyl)methyl}carbamoyl)methyl]-1H-indol-3-yl}propanoate] | < 1 | 1 to 10 |
| CCOC(=O)CCc1n[nH]c2ccc(CC(=O)NC(c3ccccc3)c3ccc(C)cc3OC(C)C)cc12 (stereo not drawn) [Cpd. 159, ethyl 3-{5-[({[4-methyl-2-(propan-2-yloxy)phenyl](phenyl)methyl}carbamoyl)methyl]-1H-indazol-3-yl}propanoate] | < 1 | 1 to 10 |
| CCOC(=O)CCCc1c[nH]c2ccc(CC(=O)NC(c3ccccc3)c3ccccc3N3CCCCC3)cc12 (stereo not drawn) [Cpd. 211, ethyl 4-{5-[({phenyl[2-(piperidin-1-yl)phenyl]methyl}carbamoyl)methyl]-1H-indol-3-yl}butanoate] | < 1 | 1 to 10 |

Other lines, results leading:

| IC50 [1] [µM] | IC50 (human RORγt) [µM] | SMILES |
| --- | --- | --- |
| < 1 | 1 to 10 | CCOC(=O)CCCCc1c[nH]c2ccc(CC(=O)NC(c3ccccc3)c3ccccc3N3CCCCC3)cc12 (stereo not drawn) [Cpd. 216, ethyl 5-{5-[({phenyl[2-(piperidin-1-yl)phenyl]methyl}carbamoyl)methyl]-1H-indol-3-yl}pentanoate] |
| 10 to 30 | 1 to 10 | CC(C)(C)OC(=O)CCc1c[nH]c2ccc(NC(=O)NC(c3ccccc3)c3ccccc3N3CCCCC3)cc12 (stereo not drawn) [compound 55, tert-butyl 3-{5-[({phenyl[2-(piperidin-1-yl)phenyl]methyl}carbamoyl)amino]-1H-indol-3-yl}propanoate] |
| < 1 | 1 to 10 | O=C(O)CCc1c[nH]c2ccc(CC(=O)NC(c3ccccc3)c3cc(Cl)ccc3N3CCCCC3)cc12 (stereo not drawn) [compound 62, 3-{5-[({[5-chloro-2-(piperidin-1-yl)phenyl](phenyl)methyl}carbamoyl)methyl]-1H-indol-3-yl}propanoic acid] |
| < 1 | 1 to 10 | Cc1ccc(C(NC(=O)Cc2ccc3[nH]cc(CC(=O)O)c3c2)c2ccccc2)c(N2CCCC2)c1 (stereo not drawn) [compound 65, 2-{5-[({[4-methyl-2-(pyrrolidin-1-yl)phenyl](phenyl)methyl}carbamoyl)methyl]-1H-indol-3-yl}acetic acid] |
| < 1 | 1 to 10 | Cc1ccc(C(NC(=O)Cc2ccc3[nH]cc(CC(=O)O)c3c2)c2ccccc2)c(N2CCCCC2)c1 (stereo not drawn) [compound 87, 2-{5-[({[4-methyl-2-(piperidin-1-yl)phenyl](phenyl)methyl}carbamoyl)methyl]-1H-indol-3-yl}acetic acid] |
| < 1 | 1 to 10 | O=C(O)CCc1c[nH]c2ccc(CC(=O)NC(c3ccccc3)c3ccc(Cl)cc3N3CCCC3)cc12 (stereo not drawn) [compound 91, 3-{5-[({[4-chloro-2-(pyrrolidin-1-yl)phenyl](phenyl)methyl}carbamoyl)methyl]-1H-indol-3-yl}propanoic acid] |
| < 1 | 1 to 10 | CC(C)CC(NC(=O)Cc1ccc2[nH]cc(CCC(=O)O)c2c1)c1cccc2ccccc12 (stereo not drawn) [compound 105, 3-[5-({[3-methyl-1-(naphthalen-1-yl)butyl]carbamoyl}methyl)-1H-indol-3-yl]propanoic acid] |
| < 1 | 1 to 10 | COc1ccc(C(NC(=O)Cc2ccc3[nH]cc(CCC(=O)O)c3c2)c2ccccc2)c(N2CCCC2)c1 (stereo not drawn) [compound 109, 3-{5-[({[4-methoxy-2-(pyrrolidin-1-yl)phenyl](phenyl)methyl}carbamoyl)methyl]-1H-indol-3-yl}propanoic acid] |
| < 1 | 1 to 10 | Cc1ccc(C(NC(=O)Cc2ccc3[nH]cc(CC(=O)N(C)C)c3c2)c2ccccc2)c(N2CCOCC2)c1 (stereo not drawn) [compound 112, N,N-dimethyl-2-{5-[({[4-methyl-2-(morpholin-4-yl)phenyl](phenyl)methyl}carbamoyl)methyl]-1H-indol-3-yl}acetamide] |
| < 1 | 1 to 10 | Cc1ccc(N2CCCCC2)c(C(NC(=O)Cc2ccc3[nH]cc(CCC(=O)O)c3c2)c2ccccc2)c1 (stereo not drawn) [compound 114, 3-{5-[({[5-methyl-2-(piperidin-1-yl)phenyl](phenyl)methyl}carbamoyl)methyl]-1H-indol-3-yl}propanoic acid] |
| < 1 | 1 to 10 | CNC(=O)CCc1c[nH]c2ccc(CC(=O)NC(c3ccccc3)c3ccccc3N3CCCCC3)cc12 (stereo not drawn) [compound 115, N-methyl-3-{5-[({phenyl[2-(piperidin-1-yl)phenyl]methyl}carbamoyl)methyl]-1H-indol-3-yl}propanamide] |
